Results on four sequences are retold here after article PMC12775124, “CUL4A-DDB1-DCAF10 is an N-recognin for N-terminally acetylated Src kinases” (Nature Communications, 2026).

Assay [1] relates to DCAF10. In words: Peptide pull-down with quantitative MS, HeLa lysate, DCAF10. Type of assay: binding, human (HeLa). Conditions: HeLa lysate; for DCAF10 binding (in words): Nt-Ac vs Nt-free peptides.
Experimental: Beads presenting 10-residue synthetic Nt-peptides of proteins of interest in their free (Nt-free) or modified (e.g., Nt-acetylated) versions were incubated with lysates from HeLa cells, followed by MS-based quantification of retained binders (Fig. 1a).
Biotinylated 10-mer Nt-peptides (Nt-free, Nt-acetylated, and, where indicated, Nt-myristoylated; sequences in Supplementary Table 1) were synthesized with a C-terminal Lys3 spacer and biotin, immobilized on magnetic streptavidin beads, and incubated with HeLa or mouse liver lysates. After standardized washes, bound proteins were on-bead reduced/alkylated, digested with LysC/trypsin, desalted, and analysed by LC-MS in DIA mode (Orbitrap Exploris 480) as described previously[24]. Variants included endogenous Nt-sequences, swap and mutant (Ala-Ala-Ala or Nt-amino acids) peptides, and pairwise comparisons of conditions of interest.
All MS experiments were performed as independent biological triplicates. Relative protein quantification was carried out using the label-free algorithm integrated in DIA-NN[53], and statistical testing was performed in Perseus using a two-sided Student’s t test with permutation-based multiple-testing-adjusted p-values[53],[54], as specified in the figure legends. […] Volcano blots were visualized with RStudio (version 2023.06.0). […] Cell experiments were performed as biological replicates, and binding assays as independent assays. […] Data are presented as mean ± s.d. Fold changes are reported as the ratio of the normalized value for the condition of interest to the normalized control value, with mean ± s.d. computed across biological replicates.
The target of assay [2] is T1, human NatA (Homo sapiens, UniProt P41227+Q9BXJ9).
T1 construct: Human NatA (hNatA) full-length (FL) was cloned; made in house; host or cells: Tnao38 insect cells (baculovirus, pFL vector)
T1 sequence (P41227 1-235): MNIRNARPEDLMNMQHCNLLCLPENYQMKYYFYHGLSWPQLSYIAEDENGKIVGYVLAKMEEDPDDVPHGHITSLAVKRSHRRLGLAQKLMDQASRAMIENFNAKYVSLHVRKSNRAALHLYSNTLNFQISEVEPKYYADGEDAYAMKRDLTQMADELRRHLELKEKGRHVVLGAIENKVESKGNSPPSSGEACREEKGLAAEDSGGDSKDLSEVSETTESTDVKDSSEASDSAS
T1 sequence (Q9BXJ9 1-866 partner): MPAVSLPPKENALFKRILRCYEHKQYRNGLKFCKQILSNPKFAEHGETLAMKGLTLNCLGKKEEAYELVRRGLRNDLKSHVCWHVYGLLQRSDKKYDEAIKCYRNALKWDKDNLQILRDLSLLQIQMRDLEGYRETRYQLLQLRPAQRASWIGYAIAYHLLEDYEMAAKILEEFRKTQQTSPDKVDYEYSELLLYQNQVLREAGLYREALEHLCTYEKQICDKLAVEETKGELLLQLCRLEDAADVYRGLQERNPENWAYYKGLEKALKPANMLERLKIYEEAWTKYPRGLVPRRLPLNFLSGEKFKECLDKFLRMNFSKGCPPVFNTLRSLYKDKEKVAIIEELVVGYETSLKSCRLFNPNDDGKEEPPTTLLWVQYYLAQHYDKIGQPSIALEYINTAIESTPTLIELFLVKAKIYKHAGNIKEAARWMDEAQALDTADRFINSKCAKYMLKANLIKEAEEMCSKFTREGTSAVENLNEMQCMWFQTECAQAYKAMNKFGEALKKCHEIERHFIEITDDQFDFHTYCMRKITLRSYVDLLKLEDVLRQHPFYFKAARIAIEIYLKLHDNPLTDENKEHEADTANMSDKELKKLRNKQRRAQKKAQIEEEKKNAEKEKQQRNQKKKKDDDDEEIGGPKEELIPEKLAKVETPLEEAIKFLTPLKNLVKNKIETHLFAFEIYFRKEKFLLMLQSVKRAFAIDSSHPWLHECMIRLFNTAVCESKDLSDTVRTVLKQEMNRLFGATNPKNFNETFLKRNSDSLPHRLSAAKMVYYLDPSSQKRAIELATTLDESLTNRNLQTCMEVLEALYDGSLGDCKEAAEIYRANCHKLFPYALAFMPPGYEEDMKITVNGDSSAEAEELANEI
In words: In vitro Nt-acetylation assay (NatA, CPM fluorescence). Type of assay: biochemical. The protocol: Gly-starting proteins can be substrates of the Nt-acetyltransferase NatA[3],[21]. Having established direct DCAF10 binding to Ac-Gly N-termini, we next asked whether SFK N-termini are bona fide NatA substrates. We developed an in vitro Nt-acetylation assay comprising purified NatA, acetyl-CoA (Ac-CoA), and the peptide of interest (Fig. 3a, b)[33]. Acetyl-group transfer was assessed using CPM [7-(diethylamino)−3-(4′-maleimidophenyl)−4-methylcoumarin], which reacts specifically with free thiol groups to produce a highly fluorescent product (excitation: 390 nm; emission: 479 nm), allowing detection of CoA production after acetyl-group transfer to the peptide (Supplementary Fig. 4e). We optimized the conditions to determine Michaelis–Menten kinetics for NatA-mediated Nt-acetylation with a target peptide ([…]) previously used for NatA assays and co-crystallization (Supplementary Fig. 4f)[34]. […] Likely, this was due to a Km even higher than that of Src, and implying that the peptide concentrations in the assay might have been insufficient for the reaction to proceed with an appreciable rate. […] Negative controls (COX17 and Ac-Lyn) produced low signals. […] Given the direct association of NatA with SFK N-termini at the ribosomal exit tunnel, however, we surmise that Nt-acetylation of SFKs in cells may proceed despite these unfavorable kinetic parameters.
The assay was performed essentially as described previously. Briefly, peptide substrates (Supplementary Table 1) were incubated with purified human NatA and acetyl-CoA; acetylation was quantified by CPM fluorescence (CoA detection), and Michaelis–Menten parameters were derived from 8-point 1:1 dilution series within the linear range (n = 4 independent enzymatic assays). Full buffer compositions, reagent concentrations, plate format, instrument settings, controls, and fitting procedures are provided in the Supplementary Methods and Tables. […]
301 Cloning, expression, and purification of human NatA
302 Human NatA (hNatA) full-length (FL) was cloned in a pFL vector expressing both
303 genes, NAA15 with a 6× C-term histidine tag (NAA15-6xHIS) and NAA102. The
304 expression was carried out in insect cells (Tnao38) for 72 h infected 1:20 with
305 baculovirus. Washed cell pellets were lysed by sonication in a lysis buffer containing 200
306 mM NaCl, 50 mM HEPES pH 8.0, 20 mM Imidazole, and 2 mM TCEP. The protein
307 purification was performed as a three-step purification, starting with an affinity nickel
308 column, followed by an ion-exchange column with a gradient of 50–300 mM NaCl, and
309 finished with size exclusion chromatography (SEC) using an S200 10/300 column. The
310 main peaks were collected, and the protein was concentrated in the SEC buffer (150 mM
311 NaCl, 50 mM HEPES pH 8.0, 1 mM EDTA). The purified hNatA was flash-frozen in
312 liquid nitrogen and stored at -80°C.
314 In vitro Nt-acetylation assay
315 The method has been described in detail previously2. Briefly, different peptides
316 (Supplementary Table 1) and concentrations (an eight-step, 1:1 dilution series for
317 Michaelis-Menten curves) as indicated were incubated with 20 nM hNatA and 80 µM Ac-
318 CoA in reaction buffer (50 mM HEPES pH 8.0, 0.5 mM EDTA, 0.005% CHAPS) for 60
319 (Src) or 120 min (Lyn), at RT in a 384-well microplate (Corning 4514) (n = 4).
320 Afterwards, the enzymatic reaction was stopped by adding 1:1 DMSO with 10 µM (final
321 concentration 5 µM) of the thiol reactive CPM (7-Diethylamino-3-
322 (4'Maleimidylphenyl)4-Methylcoumarin). After 1 h at RT, the readout was performed
323 with a Tecan Spark® Multimode Microplate Reader (excitation 390 nm, emission 479
324 nm). Background values at 0 µM peptide were subtracted, and control reactions omitting
325 NatA or Ac-CoA were performed. Dilution series of CoA incubated with 5 µM CPM were
326 used to generate a linear equation (y = 10.99*x + 81.06) to calculate acetylation velocities
327 for NatA-mediated peptide acetylation. […]

Where [3] appears, read: starting peptide concentration 1 mM.
Setting [4] is: 20 nM NatA, 80 µM Ac-CoA, pH 8.0, RT, 120 min, peptide up to 1 mM, CPM fluorescence, mean ± s.d., n = 4, read-out: Km.
Setting [5] is: conclusion: poor NatA substrates, read-out: Km, summary statement.
Where [6] appears, read: original assay, peptide up to 160 μM.
The mark [7] stands for this setting: rounded values in Peer Review File, read-out: Km, as given in rebuttal.

Where two headings read alike, the source gives them in different places.

On to “GCIKSKGKDSKK [Ac-Lyn, Nt-peptide of Lyn (aa 1–10 + KKK-biotin), Nt-acetylated]”, for which, in assay [1], the “DCAF10 binding, Nt-Ac vs Nt-Myr (in words)” value is “DCAF10 selectively recognizes the acetylated form” and the “DCAF10 binding (in words)” value is “bound to DCAF10”. The “log₂ difference Ac-Lyn vs Ac-THOC7, DCAF10” value in assay [1] (n = 3) is recorded as 5.83. In assay [2] (setting [3]), the “Nt-acetylation by NatA (in words)” value was “low signals”.

Turning to “GCIKSKGKDSKK [Nt-free Lyn, Nt-peptide of Lyn (aa 1–10 + KKK-biotin), Nt-free]”, the Km is 411 ± 94 µM in assay [2] (setting [4]), greater than 100 µM in assay [2] (setting [5]) and 411 µM in assay [2] (setting [7]). For the same sequence, the results for the “Nt-acetylation by NatA (in words)” value in assay [2] (setting [6]) and in assay [2] (setting [3]) were “did not show Nt-acetylation under these conditions” and “detectable Nt-acetylation”, respectively.

For “GCVQCKDKEAKK [Nt-free Fyn, Nt-peptide of Fyn, Nt-free]”, the results for the Km in assay [2] (setting [4]), in assay [2] (setting [5]) and in assay [2] (setting [7]) were 235 ± 46 µM, greater than 100 µM and 235 µM, respectively. Moreover, the “Nt-acetylation by NatA (in words)” value in assay [2] (setting [6]) is “did not show Nt-acetylation under these conditions”; in assay [2] (setting [3]) it was “detectable Nt-acetylation”.

As for “GSNKSKPKDAKK [Ac-Src, Nt-peptide of Src, Nt-acetylated]”, in assay [1] (Ac-Src vs Nt-free Src), the “DCAF10 binding in initial pull-downs, log2” value is roughly 5 log2. In addition, the “DCAF10 binding (in words)” value in assay [1] is reported as “bound to DCAF10”. Moreover, the “DCAF10 binding, Nt-Ac vs Nt-Myr (in words)” value in assay [1] (listed as Nt-acetylated Src) is listed as “DCAF10 selectively recognizes the acetylated form”. Also, the “Nt-acetylation by NatA (in words)” value in assay [2] (setting [6]) is given as “no detectable acetylation”.

For orientation: Km means the concentration of substrate that gives half-maximal velocity.
